From ChEMBL document CHEMBL1201862, “PubChem BioAssay data set” (2004)
Activity calls are given as the source filed them.

How the values were obtained:
Cytochrome P450 3A4 = Cytochrome P450 3A4 (Homo sapiens, UniProt P08684);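 note: CYP3A4 tested as one member of a cytochrome P450 panel screen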
[1] = system: Streptococcus sp. 'group A'; assay: growth inhibition of control SK(-) GAS strain, dose response, counter-screen for streptokinase expression inhibitor project, luminescence, kanamycin, BacTiterGlo, confirmation (AID 1900); type: functional, organism-based
Streptokinase A = target: T1, Streptokinase A (Streptococcus pyogenes serotype M1, UniProt P10520); assay: S. pyogenes streptokinase expression inhibitors, potency, dose response, plasminogen activation absorbance, OD405 (AID 1914); type: functional, Streptococcus pyogenes M1 GAS;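 note: secreted streptokinase activity via plasminogen activation per viability signal from cell pellet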
T1 sequence (P10520 whole entry): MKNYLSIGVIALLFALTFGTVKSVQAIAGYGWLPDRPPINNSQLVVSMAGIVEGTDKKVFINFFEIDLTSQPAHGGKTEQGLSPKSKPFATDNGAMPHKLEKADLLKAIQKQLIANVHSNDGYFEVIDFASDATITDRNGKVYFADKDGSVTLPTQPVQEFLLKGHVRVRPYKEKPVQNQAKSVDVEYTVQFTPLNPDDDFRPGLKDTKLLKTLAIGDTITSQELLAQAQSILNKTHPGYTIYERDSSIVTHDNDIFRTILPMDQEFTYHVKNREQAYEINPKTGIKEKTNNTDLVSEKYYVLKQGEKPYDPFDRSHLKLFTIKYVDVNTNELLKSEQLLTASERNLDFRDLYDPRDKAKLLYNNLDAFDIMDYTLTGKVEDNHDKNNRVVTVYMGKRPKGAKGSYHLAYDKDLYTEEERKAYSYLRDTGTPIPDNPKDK

Streptococcus = assay: Group A Streptococcus viability loss, dose response, counter-screen for streptokinase expression inhibitor project, luminescence, BacTiterGlo (AID 1915); type: functional, organism-based;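 note: potency for reduction of bacterial viability or growth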
HeLa = assay: HeLa cell cytotoxicity, dose response, cytotoxicity control for MITF activator project, CellTiter-Glo luminescence, cherry-pick samples (AID 540259); type: functional, cell-based; details: Homo sapiens
H4 = assay: Luminescence Cell-Based Dose Response HTS to Identify Activators of 5'UTR Stem-Loop Driven Prion Protein mRNA Translation in H4 Neuroglioblastoma Cells. [Related pubchem assays: 1829 (Project Summary), 1814 (Primary HTS)]; type: functional; details: Homo sapiens
[2] = microbe, parasite or virus in culture; type: functional; details: Mycobacterium tuberculosis
[3] = THP-1 cell cytotoxicity, dose response, cytotoxicity control for non-replicating M. tuberculosis project (AID 489025); type: functional
[4] = Vero E6 cell cytotoxicity, dose response, cytotoxicity control for non-replicating M. tuberculosis project, secondary assay (AID 492998); type: functional, VeroE6; details: Vero C1008
cells = type: functional
Cytochrome P450 2C9 = Cytochrome P450 2C9 (Homo sapiens, UniProt P11712)
Cytochrome P450 2C9, sequence (P11712 whole entry): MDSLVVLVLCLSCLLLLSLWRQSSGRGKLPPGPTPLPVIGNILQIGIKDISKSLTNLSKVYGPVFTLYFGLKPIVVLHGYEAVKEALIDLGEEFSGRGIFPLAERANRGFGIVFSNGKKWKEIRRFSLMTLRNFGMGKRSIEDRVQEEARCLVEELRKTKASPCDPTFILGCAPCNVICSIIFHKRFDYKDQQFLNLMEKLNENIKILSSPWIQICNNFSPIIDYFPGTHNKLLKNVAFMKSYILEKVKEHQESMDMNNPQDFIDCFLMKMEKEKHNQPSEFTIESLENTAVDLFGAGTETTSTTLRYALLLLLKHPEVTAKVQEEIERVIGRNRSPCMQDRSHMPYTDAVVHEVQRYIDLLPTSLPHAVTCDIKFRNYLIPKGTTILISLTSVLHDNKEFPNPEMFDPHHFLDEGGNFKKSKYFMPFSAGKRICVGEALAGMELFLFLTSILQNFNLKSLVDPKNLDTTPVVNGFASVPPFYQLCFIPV

Cytochrome P450 2C19 = Cytochrome P450 2C19 (Homo sapiens, UniProt P33261); assay: Cytochrome panel assay with activity outcomes. Panel member name: p450-cyp2c19 Compounds with AC50 equal or less than 10 uM are considered active; type: functional; details: read-out: AC50
Cytochrome P450 2C19, sequence (P33261 whole entry): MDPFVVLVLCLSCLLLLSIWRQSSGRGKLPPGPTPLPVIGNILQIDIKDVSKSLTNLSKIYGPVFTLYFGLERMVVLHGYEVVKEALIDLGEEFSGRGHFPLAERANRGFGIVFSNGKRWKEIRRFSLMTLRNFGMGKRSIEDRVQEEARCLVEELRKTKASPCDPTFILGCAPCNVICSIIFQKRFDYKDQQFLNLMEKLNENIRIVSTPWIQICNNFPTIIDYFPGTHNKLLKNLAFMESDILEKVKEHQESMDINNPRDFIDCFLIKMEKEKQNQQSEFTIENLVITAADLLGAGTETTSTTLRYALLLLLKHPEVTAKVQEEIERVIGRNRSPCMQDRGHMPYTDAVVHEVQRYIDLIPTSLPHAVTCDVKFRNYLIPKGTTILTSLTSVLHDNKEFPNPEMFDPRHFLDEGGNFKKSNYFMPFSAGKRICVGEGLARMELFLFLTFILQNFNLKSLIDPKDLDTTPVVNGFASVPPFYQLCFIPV

Cytochrome P450 3A4, sequence (P08684 whole entry): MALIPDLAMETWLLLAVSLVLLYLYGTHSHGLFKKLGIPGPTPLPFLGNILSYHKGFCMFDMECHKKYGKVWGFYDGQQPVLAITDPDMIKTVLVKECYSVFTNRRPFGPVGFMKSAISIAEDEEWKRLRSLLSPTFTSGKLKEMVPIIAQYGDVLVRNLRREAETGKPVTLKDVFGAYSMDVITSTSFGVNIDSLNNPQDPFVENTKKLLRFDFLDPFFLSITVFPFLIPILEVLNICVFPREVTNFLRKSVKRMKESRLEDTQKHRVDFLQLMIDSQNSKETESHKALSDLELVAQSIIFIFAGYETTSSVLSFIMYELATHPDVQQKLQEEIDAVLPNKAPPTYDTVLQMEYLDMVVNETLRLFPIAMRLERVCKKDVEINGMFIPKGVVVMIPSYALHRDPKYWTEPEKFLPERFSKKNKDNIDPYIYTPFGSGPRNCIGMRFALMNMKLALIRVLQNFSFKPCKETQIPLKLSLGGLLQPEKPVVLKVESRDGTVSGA

With `O=C1N=C(N2CCC(Cc3ccccc3)CC2)S/C1=C/c1c[nH]nc1-c1ccccc1` the AC50 (Cytochrome P450 3A4) was “inconclusive”.
In the case of `CCC(C)NC(=O)C1CCN(C(=O)c2ccccc2)CC1` (configuration not stated), the AC50 (Cytochrome P450 3A4) was “inconclusive”.
With `CC(C)Nc1cc(C(C)(C)C)nc2c(-c3ccccc3)cnn12` the EC50 [1] was 6.01 µM (active), the EC50 (Streptokinase A) was 13.6 µM (active) and the EC50 (Streptococcus) was 15.9 µM (active). For the same compound, the AC50 (HeLa) was 58.2 µM (active).
With `O=C(NCCC1=CCCCC1)NC12CC3CC(CC(C3)C1)C2` the EC50 (H4) was 6.24 µM (active), the CC50 [2] was > 40 µM (active) and the AC50 (HeLa) was 215 µM (active).
With `C=CCn1cccc(C(=O)Nc2ccc(Cl)cc2)c1=O` the AC50 (HeLa) was 99.8 µM (active).
In the case of `CC(C)c1nnc(NC(=O)c2c(O)c3cccc4c3n(c2=O)CCC4)s1`, the CC50 [3] was 8.21 µM (active), the CC50 [4] was 17.1 µM (active) and the IC50 (cells) was 7.34 µM (active).
In the case of `O=C(COc1ccc(Cl)cc1)Nc1ccc(N2CCN(C(=O)c3ccco3)CC2)cc1`, the AC50 (Cytochrome P450 2C9) was 1.12 µM (inconclusive) and the AC50 (Cytochrome P450 3A4) was “inconclusive”.
With `C[C@]12CC[C@H]3c4ccc(O)cc4CC[C@@H]3[C@H]1CC[C@@H]2OC(=O)CCC1CCCC1` the AC50 (Cytochrome P450 2C19) was 6.31 µM (inconclusive) and the AC50 (Cytochrome P450 3A4) was “inconclusive”.
